Results published in PubChem BioAssay AID248 (DTP/NCI, 2004).
Where “and” joins values, the source holds several entries; their conditions need not be identical. Identical values can stand only once. Toxic doses and inconclusive results are not listed. Rule as the data show it: active = T/C of 150% or more; inactive = T/C below 125%.

System: L1210 leukemia ip in BDF1 mice, survival T/C
Assay: NCI In Vivo Anticancer Drug Screen. Data for tumor model L1210 Leukemia (intraperitoneal) in B6D2F1 (BDF1) mice
Details: higher = longer survival
How it was run: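 Tumor was transplanted into mice, which were then dosed with test compound or vehicle alone. Survival was recorded for each group, and the treated figure was expressed relative to the control figure.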

Measured: T/C

Nc1ncn(C2OC(CO)C(O)C2O)c(=O)n1 (stereo not given)
inactive: endpoint: mean survival time, dose: 0.12 mg/kg/injection, schedule: Q01DX009 (ip), vehicle: saline 111 % of control | endpoint: mean survival time, dose: 0.23 mg/kg/injection, schedule: Q01DX009 (ip), vehicle: saline 101 % of control and 121 % of control | endpoint: mean survival time, dose: 1.0 mg/kg/injection, schedule: Q01DX005 (oral), vehicle: saline 114 % of control | endpoint: mean survival time, dose: 1.0 mg/kg/injection, schedule: Q## X008 (ip), vehicle: saline 121 % of control | endpoint: mean survival time, dose: 1.0 mg/kg/injection, schedule: Q## X040 (oral), vehicle: saline 105 % of control | endpoint: mean survival time, dose: 2.0 mg/kg/injection, schedule: Q01DX005 (oral), vehicle: saline 124 % of control | endpoint: mean survival time, dose: 2.0 mg/kg/injection, schedule: Q## X040 (oral), vehicle: saline 108 % of control | endpoint: mean survival time, dose: 2.3 mg/kg/injection, schedule: Q04DX002 (ip), vehicle: saline 117 % of control and 123 % of control | endpoint: mean survival time, dose: 3.0 mg/kg/injection, schedule: Q01DX001 (ip), vehicle: saline 119 % of control | endpoint: mean survival time, dose: 3.0 mg/kg/injection, schedule: Q01DX009 (ip), vehicle: saline with Tween-80 111 % of control | endpoint: mean survival time, dose: 6.0 mg/kg/injection, schedule: Q01DX005 (ip), vehicle: water 112 % of control | endpoint: mean survival time, dose: 6.0 mg/kg/injection, schedule: Q01DX009 (ip), vehicle: clinical formulation 103 % of control | endpoint: mean survival time, dose: 6.0 mg/kg/injection, schedule: Q01DX009 (ip), vehicle: other 104 % of control | endpoint: mean survival time, dose: 6.0 mg/kg/injection, schedule: Q01DX009 (ip), vehicle: saline 98 % of control | endpoint: mean survival time, dose: 6.0 mg/kg/injection, schedule: Q01DX009 (ip), vehicle: water 94 % of control | endpoint: mean survival time, dose: 7.2 mg/kg/injection, schedule: Q01DX009 (ip), vehicle: saline 111 % of control | endpoint: mean survival time, dose: 10.0 mg/kg/injection, schedule: Q01DX009 (ip), vehicle: saline 111 % of control | endpoint: mean survival time, dose: 12.0 mg/kg/injection, schedule: Q01DX009 (ip), vehicle: saline 98 % of control | endpoint: mean survival time, dose: 24.0 mg/kg/injection, schedule: Q01DX009 (ip), vehicle: saline 93 % of control | endpoint: mean survival time, dose: 32.0 mg/kg/injection, schedule: Q01DX001 (oral), vehicle: saline 112 % of control | endpoint: mean survival time, dose: 48.0 mg/kg/injection, schedule: Q01DX009 (ip), vehicle: saline 102 % of control | endpoint: mean survival time, dose: 64.0 mg/kg/injection, schedule: Q01DX001 (oral), vehicle: saline 111 % of control | endpoint: mean survival time, dose: 96.0 mg/kg/injection, schedule: Q## X003 (ip), vehicle: saline 114 % of control | endpoint: mean survival time, dose: 200.0 mg/kg/injection, schedule: Q01DX001 (ip), vehicle: other 118 % of control | endpoint: mean survival time, dose: 512.0 mg/kg/injection, schedule: Q## X003 (oral), vehicle: saline 111 % of control | endpoint: median survival time, dose: 1.0 mg/kg/injection, schedule: Q01DX005 (ip), vehicle: saline 120 % of control | endpoint: median survival time, dose: 3.6 mg/kg/injection, schedule: Q01DX009 (ip), vehicle: saline 100 % of control and 104 % of control | endpoint: median survival time, dose: 5.0 mg/kg/injection, schedule: Q01DX001 (ip), vehicle: saline 121 % of control and 122 % of control | endpoint: median survival time, dose: 6.0 mg/kg/injection, schedule: Q01DX009 (ip), vehicle: saline 110 % of control | endpoint: median survival time, dose: 8.4 mg/kg/injection, schedule: Q01DX009 (ip), vehicle: saline 99 % of control and 100 % of control
active: endpoint: mean survival time, dose: 0.5 mg/kg/injection, schedule: Q01DX009 (ip), vehicle: saline 156 % of control | endpoint: mean survival time, dose: 0.75 mg/kg/injection, schedule: Q01DX009 (ip), vehicle: other 161 % of control | endpoint: mean survival time, dose: 1.25 mg/kg/injection, schedule: Q01DX009 (ip), vehicle: saline 170 % of control | endpoint: mean survival time, dose: 1.3 mg/kg/injection, schedule: Q03HX008 (ip), vehicle: saline 171 % of control | endpoint: mean survival time, dose: 1.5 mg/kg/injection, schedule: Q01DX005 (ip), vehicle: clinical formulation 150 % of control | endpoint: mean survival time, dose: 1.5 mg/kg/injection, schedule: Q01DX009 (ip), vehicle: water 164 % of control and 166 % of control | endpoint: mean survival time, dose: 2.0 mg/kg/injection, schedule: Q01DX015 (ip), vehicle: other 159 % of control | endpoint: mean survival time, dose: 2.0 mg/kg/injection, schedule: Q03HX008 (ip), vehicle: saline 155 % of control | endpoint: mean survival time, dose: 2.0 mg/kg/injection, schedule: Q## X024 (ip), vehicle: saline 151 % of control | endpoint: mean survival time, dose: 2.5 mg/kg/injection, schedule: Q01DX009 (ip), vehicle: carboxymethylcellulose (CMC) 155 % of control | endpoint: mean survival time, dose: 3.0 mg/kg/injection, schedule: Q01DX005 (ip), vehicle: water 150 % of control | endpoint: mean survival time, dose: 3.0 mg/kg/injection, schedule: Q01DX009 (oral), vehicle: saline 158 % of control | endpoint: mean survival time, dose: 3.0 mg/kg/injection, schedule: Q03HX008 (ip), vehicle: saline 170 % of control | endpoint: mean survival time, dose: 3.12 mg/kg/injection, schedule: Q01DX009 (ip), vehicle: saline 164 % of control | endpoint: mean survival time, dose: 3.12 mg/kg/injection, schedule: Q04DX003 (ip), vehicle: water 157 % of control and 160 % of control | endpoint: mean survival time, dose: 4.0 mg/kg/injection, schedule: Q## X024 (ip), vehicle: saline 168 % of control | endpoint: mean survival time, dose: 6.0 mg/kg/injection, schedule: Q01DX009 (oral), vehicle: saline 172 % of control | endpoint: mean survival time, dose: 6.0 mg/kg/injection, schedule: Q## X008 (ip), vehicle: saline 156 % of control | endpoint: mean survival time, dose: 8.0 mg/kg/injection, schedule: Q01DX005 (oral), vehicle: saline 164 % of control | endpoint: mean survival time, dose: 8.0 mg/kg/injection, schedule: Q## X040 (oral), vehicle: saline 163 % of control | endpoint: mean survival time, dose: 12.0 mg/kg/injection, schedule: Q01DX001 (ip), vehicle: saline 150 % of control | endpoint: mean survival time, dose: 12.0 mg/kg/injection, schedule: Q01DX005 (ip), vehicle: saline 168 % of control | endpoint: mean survival time, dose: 12.0 mg/kg/injection, schedule: Q## X008 (ip), vehicle: saline 161 % of control and 162 % of control | endpoint: mean survival time, dose: 12.5 mg/kg/injection, schedule: Q01DX001 (ip), vehicle: saline 164 % of control | endpoint: mean survival time, dose: 12.5 mg/kg/injection, schedule: Q01DX005 (ip), vehicle: saline 172 % of control | endpoint: mean survival time, dose: 22.0 mg/kg/injection, schedule: Q01DX001 (ip), vehicle: other 153 % of control | endpoint: mean survival time, dose: 22.0 mg/kg/injection, schedule: Q01DX001 (ip), vehicle: saline 160 % of control | endpoint: mean survival time, dose: 24.0 mg/kg/injection, schedule: Q01DX001 (ip), vehicle: saline 158 % of control | endpoint: mean survival time, dose: 24.0 mg/kg/injection, schedule: Q## X008 (ip), vehicle: saline 171 % of control | endpoint: mean survival time, dose: 25.0 mg/kg/injection, schedule: Q01DX001 (ip), vehicle: saline 166 % of control and 168 % of control | endpoint: mean survival time, dose: 32.0 mg/kg/injection, schedule: Q## X003 (oral), vehicle: saline 163 % of control | endpoint: mean survival time, dose: 32.0 mg/kg/injection, schedule: Q## X024 (oral), vehicle: saline 173 % of control | endpoint: mean survival time, dose: 33.0 mg/kg/injection, schedule: Q01DX001 (ip), vehicle: saline 153 % of control | endpoint: mean survival time, dose: 64.0 mg/kg/injection, schedule: Q## X003 (oral), vehicle: saline 163 % of control and 164 % of control | endpoint: mean survival time, dose: 64.0 mg/kg/injection, schedule: Q## X008 (oral), vehicle: saline 158 % of control | endpoint: mean survival time, dose: 69.0 mg/kg/injection, schedule: Q04DX002 (ip), vehicle: saline 150 % of control | endpoint: mean survival time, dose: 75.0 mg/kg/injection, schedule: Q01DX001 (ip), vehicle: other 168 % of control | endpoint: mean survival time, dose: 96.0 mg/kg/injection, schedule: Q01DX001 (ip), vehicle: saline 174 % of control | endpoint: mean survival time, dose: 100.0 mg/kg/injection, schedule: Q01DX001 (ip), vehicle: other 162 % of control | endpoint: mean survival time, dose: 125.0 mg/kg/injection, schedule: Q01DX001 (ip), vehicle: saline 151 % of control | endpoint: mean survival time, dose: 150.0 mg/kg/injection, schedule: Q01DX001 (ip), vehicle: saline 154 % of control | endpoint: mean survival time, dose: 256.0 mg/kg/injection, schedule: Q## X003 (oral), vehicle: saline 171 % of control | endpoint: mean survival time, dose: 768.0 mg/kg/injection, schedule: Q01DX001 (oral), vehicle: saline 157 % of control | endpoint: median survival time, dose: 0.75 mg/kg/injection, schedule: Q01DX009 (ip), vehicle: saline 160 % of control | endpoint: median survival time, dose: 0.78 mg/kg/injection, schedule: Q01DX009 (ip), vehicle: saline 150 % of control | endpoint: median survival time, dose: 1.3 mg/kg/injection, schedule: Q01DX009 (ip), vehicle: saline 154 % of control and 159 % of control | endpoint: median survival time, dose: 2.0 mg/kg/injection, schedule: Q01DX005 (ip), vehicle: saline 169 % of control | endpoint: median survival time, dose: 8.0 mg/kg/injection, schedule: Q01DX005 (ip), vehicle: saline 154 % of control | endpoint: median survival time, dose: 40.0 mg/kg/injection, schedule: Q01DX001 (ip), vehicle: saline 153 % of control and 155 % of control | endpoint: median survival time, dose: 80.0 mg/kg/injection, schedule: Q01DX001 (ip), vehicle: saline 151 % of control and 155 % of control
